test system: A2780 cells; test: In-vitro cell proliferation assay (SRB, 72 hours); format: cell-based; conditions: Homo sapiens, sulforhodamine B (SRB) assay
Protocol: In-Vitro Cell Proliferation Assay
After overnight incubation at 37° C. and 5% CO2, the compound titrations were performed in a separate dilution plate by serially diluting the compounds in DMSO to make a 1000× stock. The compounds were then further diluted to 10× final concentration in culture media, whereupon 20 μL of each dilution was added to the plated cells with controls (e.g. DMSO and blank) to make a final volume of 200 μL. The final DMSO concentration in each well was 0.1%. The plates were then incubated for 72 hours at 37° C. in a 5% CO2 incubator. The number of viable cells was then assessed using sulforhodamine B (SRB) assay. Cells were fixed at 4° C. for 1 hour with the addition of 50 μL 30% trichloroacetic acid (TCA) to make a final concentration of 6% TCA. The plates were washed four times with H2O and allowed to dry for at least 1 hour, whereupon 100 μL of a 4% SRB in 1% acetic acid solution was added to each well and incubated at room temperature for at least 30 minutes. The plates were then washed three times with 1% acetic acid, dried, and treated with 100 μL of 10 mM Tris-Base solution. The plates were then read in a microplate reader at an absorbance of 570 nm. Background was generated on a separate plate with media only.
Method for Determining % Inhibition
First, the signals from the background plate are averaged, then the background was subtracted from the test plates.
wherein x denotes the average signal of the compound-treated cells and y denotes the average signal of the DMSO-treated cells.
wherein X denotes the compound concentration 1, Y denotes the compound concentration 2, XX denotes the % inhibition at compound concentration 1 (X), and YY denotes the % inhibition at compound concentration 2 (Y).

| SMILES | IC50 [nM] |
| --- | --- |
| O=C(NCCCCC1CCN(C(=O)c2ccc(-n3cccn3)cc2)CC1)c1cc2cnccc2[nH]1 [N-[4-(1-{[4-(1H-pyrazol-1-yl)phenyl]carbonyl}piperidin-4-yl)butyl]-1H-pyrrolo[3,2-c]pyridine-2-carboxamide] | 13.6 |
| COc1ccc(C(=O)N2CCC(CCCCNC(=O)c3cc4cnccc4[nH]3)CC2)cc1 [N-(4-{1-[(4-methoxyphenyl)carbonyl]piperidin-4-yl}butyl)-1H-pyrrolo[3,2-c]pyridine-2-carboxamide] | 16.3 |
| O=C(NCCCCC1CCN(S(=O)(=O)c2cccnc2)CC1)c1cc2cnccc2[nH]1 [N-{4-[1-(pyridine-3-sulfonyl)piperidin-4-yl]butyl}-1H-pyrrolo[3,2-c]pyridine-2-carboxamide] | 13.9 |
| COc1cccc(C(=O)N2CCC(CCCCNC(=O)c3cc4cnccc4[nH]3)CC2)c1 [N-(4-{1-[(3-methoxyphenyl)carbonyl]piperidin-4-yl}butyl)-1H-pyrrolo[3,2-c]pyridine-2-carboxamide] | 3.8 |
| Cc1cccc(C(=O)N2CCC(CCCCNC(=O)c3cc4ccncc4s3)CC2)c1F [N-(4-{1-[(2-fluoro-3-methylphenyl)carbonyl]piperidin-4-yl}butyl)thieno[2,3-c]pyridine-2-carboxamide] | 12.6 |
| O=C(NCCCCC1CCN(C(=O)c2cccc(Cl)c2)CC1)c1cc2cnccc2[nH]1 [N-(4-{1-[(3-chlorophenyl)carbonyl]piperidin-4-yl}butyl)-1H-pyrrolo[3,2-c]pyridine-2-carboxamide] | 11.9 |
| O=C(NCCCCC1CCN(C(=O)c2ccc(-n3cccn3)cc2)CC1)c1ccc2nccn2c1 [N-[4-(1-{[4-(1H-pyrazol-1-yl)phenyl]carbonyl}piperidin-4-yl)butyl]imidazo[1,2-a]pyridine-6-carboxamide] | 67.1 |
| COc1ccc(Cl)cc1C(=O)N1CCC(CCCCNC(=O)c2cc3cnccc3[nH]2)CC1 [N-(4-{1-[(5-chloro-2-methoxyphenyl)carbonyl]piperidin-4-yl}butyl)-1H-pyrrolo[3,2-c]pyridine-2-carboxamide] | 3.3 |
| COc1cccc(C(=O)N2CCC(CCCCNC(=O)c3ccc4nccn4c3)CC2)c1 [N-(4-{1-[(3-methoxyphenyl)carbonyl]piperidin-4-yl}butyl)imidazo[1,2-a]pyridine-6-carboxamide] | 6.6 |
| COc1cc(OC)cc(C(=O)N2CCC(CCCCNC(=O)c3ccc4nccn4c3)CC2)c1 [N-(4-{1-[(3,5-dimethoxyphenyl)carbonyl]piperidin-4-yl}butyl)imidazo[1,2-a]pyridine-6-carboxamide] | 2.8 |
| O=C(NCCCCC1CCN(C(=O)c2ccc(F)cc2)CC1)c1cc2cnccc2[nH]1 [N-(4-{1-[(4-fluorophenyl)carbonyl]piperidin-4-yl}butyl)-1H-pyrrolo[3,2-c]pyridine-2-carboxamide] | 14.7 |
| O=C(NCCc1ccc(OCc2ccccc2)cc1)c1cc2cnccc2[nH]1 [N-(4-(benzyloxy)phenethyl)-1H-pyrrolo[3,2-c]pyridine-2-carboxamide] | 2000 |
| O=C(NCCCCC1CCN(C(=O)c2cc(F)ccc2F)CC1)c1cc2ccncc2s1 [N-(4-{1-[(2,5-difluorophenyl)carbonyl]piperidin-4-yl}butyl)thieno[2,3-c]pyridine-2-carboxamide] | 1.6 |

target: T1, Recombinant His-tagged NAMPT (Homo sapiens, UniProt P43490); test: Biochemical inhibition assay: NAMPT enzymatic reaction, NMN quantified by mass spectrometry; conditions: 33 nM NAMPT, 1 μM NAM, 100 μM PRPP, 2.5 mM ATP, 30 minutes at room temperature; read-out: Biochem IC50
T1 construct: His; host or cells: E. coli
Protocol: Biochemical Inhibition Assay
NAMPT Protein Purification
Recombinant His-tagged NAMPT was produced in E. coli cells, purified over a Ni column, and further purified over a size-exclusion column by XTAL Biostructures.
The NAMPT Enzymatic Reaction
The NAMPT enzymatic reactions were carried out in Buffer A (50 mM Hepes pH 7.5, 50 mM NaCl, 5 mM MgCl2, and 1 mM THP) in 96-well V-bottom plates. The compound titrations were performed in a separate dilution plate by serially diluting the compounds in DMSO to make a 100× stock. […] The compound and enzyme mix was incubated for 15 minutes at room temperature, then 10 μL of 10× substrate and co-factors in Buffer A were added to the test well to make a final concentration of 1 μM NAM, 100 μM 5-Phospho-D-ribose 1-diphosphate (PRPP), and 2.5 mM Adenosine 5′-triphosphate (ATP). The reaction was allowed to proceed for 30 minutes at room temperature, then was quenched with the addition of 11 μL of a solution of formic acid and L-Cystathionine to make a final concentration of 1% formic acid and 10 μM L-Cystathionine. Background and signal strength was determined by addition (or non-addition) of a serial dilution of NMN to a pre-quenched enzyme and cofactor mix.
A mass spectrometry-based assay was used to measure the Nampt reaction product (NMN) and the internal control (L-Cystathionine). NMN and L-Cystathionine were detected using the services of Biocius Lifesciences with the RapidFire system. In short, the NMN and L-Cystathionine are bound to a graphitic carbon cartridge in 0.1% formic acid, eluted in 30% acetonitrile buffer, and injected into a Sciex 4000 mass spectrometer. The components of the sample were ionized with electrospray ionization and the positive ions were detected. […] The fragments are quantified and the analyzed by the following method.
First the NMN signal is normalized to the L-Cystathionine signal by dividing the NMN signal by the L-Cystathionine signal for each well. The signal from the background wells are averaged and subtracted from the test plates.
Wherein x denotes the average signal of the compound treated wells and y denotes the average signal of the DMSO treated wells.
IC50s are Determined Using Excel and this Formula.
Wherein X denotes the compound concentration 1, Y denotes the compound concentration 2, XX denotes the % inhibition at compound concentration 1 (X), and YY denotes the % inhibition at compound concentration 2 (Y).

T1 sequence (P43490 whole entry): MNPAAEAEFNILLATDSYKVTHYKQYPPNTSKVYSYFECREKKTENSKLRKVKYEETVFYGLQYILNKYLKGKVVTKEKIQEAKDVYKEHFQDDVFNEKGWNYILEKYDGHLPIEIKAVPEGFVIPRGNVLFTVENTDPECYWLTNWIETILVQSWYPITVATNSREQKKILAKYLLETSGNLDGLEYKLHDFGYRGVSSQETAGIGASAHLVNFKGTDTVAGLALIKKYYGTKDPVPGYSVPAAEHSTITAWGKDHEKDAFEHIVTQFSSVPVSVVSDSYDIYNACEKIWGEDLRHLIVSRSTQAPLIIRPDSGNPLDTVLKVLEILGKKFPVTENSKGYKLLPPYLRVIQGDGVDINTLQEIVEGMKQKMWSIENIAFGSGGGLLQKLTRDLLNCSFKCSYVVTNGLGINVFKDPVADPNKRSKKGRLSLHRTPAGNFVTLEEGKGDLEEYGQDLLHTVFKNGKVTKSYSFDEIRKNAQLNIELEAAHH

| SMILES | IC50 [nM] |
| --- | --- |
| O=C(NCCCCC1CCN(C(=O)c2ccc(-n3cccn3)cc2)CC1)c1cc2cnccc2[nH]1 [N-[4-(1-{[4-(1H-pyrazol-1-yl)phenyl]carbonyl}piperidin-4-yl)butyl]-1H-pyrrolo[3,2-c]pyridine-2-carboxamide] | 50.7 |
| COc1ccc(C(=O)N2CCC(CCCCNC(=O)c3cc4cnccc4[nH]3)CC2)cc1 [N-(4-{1-[(4-methoxyphenyl)carbonyl]piperidin-4-yl}butyl)-1H-pyrrolo[3,2-c]pyridine-2-carboxamide] | 79.7 |
| O=C(NCCCCC1CCN(S(=O)(=O)c2cccnc2)CC1)c1cc2cnccc2[nH]1 [N-{4-[1-(pyridine-3-sulfonyl)piperidin-4-yl]butyl}-1H-pyrrolo[3,2-c]pyridine-2-carboxamide] | 16.1 |
| O=C(NCCCCC1CCN(C(=O)c2cc3cc(F)ccc3[nH]2)CC1)c1ccc2nccn2c1 [N-(4-{1-[(5-fluoro-1H-indol-2-yl)carbonyl]piperidin-4-yl}butyl)imidazo[1,2-a]pyridine-6-carboxamide] | 71.3 |
| O=C(NCCCCC1CCN(C(=O)c2ccc3nccn3c2)CC1)c1ccc2nccn2c1 [N-{4-[1-({imidazo[1,2-a]pyridin-6-yl}carbonyl)piperidin-4-yl]butyl}imidazo[1,2-a]pyridine-6-carboxamide] | 8.5 |
| O=C(NCCCCC1CN(C(=O)c2ccccc2)C1)c1cc2cnccc2[nH]1 [N-[4-(1-benzoylazetidin-3-yl)butyl]-1H-pyrrolo[3,2-c]pyridine-2-carboxamide] | 23.2 |
| O=C(NCCCCC1CCN(C(=O)c2ccccc2Cl)CC1)c1cc2cnccc2[nH]1 [N-(4-{1-[(2-chlorophenyl)carbonyl]piperidin-4-yl}butyl)-1H-pyrrolo[3,2-c]pyridine-2-carboxamide] | 15.8 |
| O=C(NCCCCC1CCN(C(=O)c2ccccc2Cl)CC1)c1ccc2nccn2c1 [N-(4-{1-[(2-chlorophenyl)carbonyl]piperidin-4-yl}butyl)imidazo[1,2-a]pyridine-6-carboxamide] | 5 |
| O=C(NCCCCC1CCN(C(=O)c2csc(-c3ccccc3)n2)CC1)c1ccc2nccn2c1 [N-(4-{1-[(2-phenyl-1,3-thiazol-4-yl)carbonyl]piperidin-4-yl}butyl)imidazo[1,2-a]pyridine-6-carboxamide] | 52.3 |
| O=C(NCc1ccc(S(=O)(=O)c2ccc(C(=O)N3CCCC3)cc2)cc1)c1cc2ccncc2s1 [N-{[4-({4-[(pyrrolidin-1-yl)carbonyl]benzene}sulfonyl)phenyl]methyl}thieno[2,3-c]pyridine-2-carboxamide] | 3.7 |
| Cc1oncc1S(=O)(=O)N1CCC(CCCCNC(=O)c2cc3cnccc3[nH]2)CC1 [N-{4-[1-(5-methyl-1,2-oxazole-4-sulfonyl)piperidin-4-yl]butyl}-1H-pyrrolo[3,2-c]pyridine-2-carboxamide] | 36.7 |
| O=C(NCCCCC1CCN(C(=O)c2cc(F)ccc2F)CC1)c1cc2cnccc2[nH]1 [N-(4-{1-[(2,5-difluorophenyl)carbonyl]piperidin-4-yl}butyl)-1H-pyrrolo[3,2-c]pyridine-2-carboxamide] | 10.3 |
| CC(C)c1ncoc1C(=O)N1CCC(CCCCNC(=O)c2cc3ccncc3s2)CC1 [N-[4-(1-{[4-(propan-2-yl)-1,3-oxazol-5-yl]carbonyl}piperidin-4-yl)butyl]thieno[2,3-c]pyridine-2-carboxamide] | 7.4 |
| COc1ccc(F)cc1S(=O)(=O)N1CCC(CCCCNC(=O)c2cc3cnccc3[nH]2)CC1 [N-(4-{1-[(5-fluoro-2-methoxybenzene)sulfonyl]piperidin-4-yl}butyl)-1H-pyrrolo[3,2-c]pyridine-2-carboxamide] | 23.2 |
| O=C(NCCCCC1CCN(C(=O)c2ccc(C(F)(F)F)cn2)CC1)c1ccc2nccn2c1 [N-[4-(1-{[5-(trifluoromethyl)pyridin-2-yl]carbonyl}piperidin-4-yl)butyl]imidazo[1,2-a]pyridine-6-carboxamide] | 82.3 |
| Cc1ccc(C(=O)N2CCC(CCCCNC(=O)c3ccc4nccn4c3)CC2)cc1F [N-(4-{1-[(3-fluoro-4-methylphenyl)carbonyl]piperidin-4-yl}butyl)imidazo[1,2-a]pyridine-6-carboxamide] | 39.4 |
| O=C(NCc1ccc(S(=O)(=O)c2ccc(C(=O)N3CCCC3)cc2)cc1)c1cnc2[nH]ncc2c1 [N-{[4-({4-[(pyrrolidin-1-yl)carbonyl]benzene}sulfonyl)phenyl]methyl}-1H-pyrazolo[3,4-b]pyridine-5-carboxamide] | 15.8 |
| COCc1ccc(C(=O)N2CCC(CCCCNC(=O)c3cc4ccncc4s3)CC2)nc1 [N-[4-(1-{[5-(methoxymethyl)pyridin-2-yl]carbonyl}piperidin-4-yl)butyl]thieno[2,3-c]pyridine-2-carboxamide] | 18.3 |
